Measurements published in patent US11639368B2, “Method for preventing and treating hyperpermeability” (Apeptico Forschung UND E[…], priority 2009, dated 2023).
“Also recorded” adds a separate entry of the source.

Legend:
[1] = tested on: arterial endothelial cells; assay: Reactive oxygen molecules in endothelial cells under oxygen deficiency, measured by EPR; type: cell-based; conditions: oxygen deficiency (0.1% oxygen, hypoxic gas mixture), 50 μg/ml of peptide
Protocol: Cell Culture of Endothelial Cells
For the generation of reactive oxygen molecules, arterial endothelial cells were cultivated in an oxygen-deficient gas mixture of 0.1% oxygen, 5% […] and 94.9% nitrogen (hypoxic gas mixture). In control experiments, the gas concentrations were 21% oxygen, 5% […] and 74% nitrogen (normoxic gas mixture).
After 90 minutes under oxygen-deficient conditions, the endothelial cells were cultivated with 21% oxygen for a further 30 minutes. Thereafter, 20 μl of a solution consisting of 20 uM 1-hydroxy-3-methoxycarbonyl-2,2,5,5-tetramethylpyrrolidine HCl (CHM), 20 μM DPBS, 25 μM desferrioxamine and 5 μM diethyldithiocarbamate as well as 2 μl of DMSO were added to the cells.
Trypsinization of the Cells.
Following cell culture, the cells were individualized in a manner common in the laboratory by adding a trypsin solution. The endothelial cells were washed and suspended in 35 μl of a solution consisting of DPBS and 25 μM desferrioxamine and 5 μM diethyldithiocarbamate.
Measurement of the Electron Paramagnetic Resonance (EPR)
The determination of the electron paramagnetic resonance (EPR), also called electron spin resonance, serves the investigation of paramagnetic substances, e.g. for detection of unpaired electrons in reactive oxygen molecules (radicals of the oxygen). […]

[2] = tested on: human endothelial cells of the lungs; assay: Toxin-induced hyperpermeability, transendothelial electric resistance (ECIS), endothelial cells; type: cell-based; conditions: 500 ng/ml of listeriolysin, 50 μg/ml of peptide
[3] = tested on: Human epithelial cells of the lungs of type H441; assay: Toxin-induced hyperpermeability, electric resistance (ECIS), epithelial cells; type: cell-based; conditions: 1 μg/ml of listeriolysin, 50 μg/ml of peptide
Protocol: (§1) Human epithelial cells of the lungs of type H441 were acquired from the company ATTC.
(§2) The microbial toxins listeriolysin (LLO) and pneumolysin (PLY) were acquired from the University of Giessen.
Epithelial cells of the lungs of type H441 were cultivated in a manner common in the laboratory in a commercial RPMI 1640 medium with the additives 2 mM L-glutamine, 1.5 g/l of sodium carbonate, 4.5 g/l of glucose, 10 mM HEPES buffer pH 7.4, 10% bovine serum. The ECIS experiments took place in serum-free medium.
In order to cause hyperpermeability, i.e. injuries of the endothelial cells and epithelial cells, the human epithelial cells of the lungs as well as the human endothelial cells of the lungs were cultivated in a manner common in the laboratory up to the formation of a continuous cell layer, and subsequently, the toxins listeriolysin or pneumolysin, respectively, were added.

myosin light chain = assay: Phosphorylation of the myosin light chain (protein blot, densitometry); type: cell-based; conditions: human endothelial lung cells; for increase in the content of phosphorylated myosin light chain by listeriolysin: 250 ng/ml of listeriolysin, 50 μg/ml of peptide
Text: Human endothelial cells of the lungs, isolated from capillaries of the lungs, were acquired from the company Lonza.
as §2
Human endothelial cells of the lungs, isolated from capillaries of the lungs, were cultivated in a manner common in the laboratory.
Determination of Phosphorylation of the Myosin Light Chain
For the determination of phosphorylation of the myosin light chain and the influence of the peptide SEQ ID No. 1 on the phosphorylation, the previously cultivated human endothelial cells of the lungs were washed with phosphate buffer pH 7.4, which contained 1 mM orthovanadate. The cell contents was lysed by incubation of the cells with a solution of 20 mM tris buffer (pH 7.4), 150 mM mol/1 of NaCl, 1 mM EDTA, 1 mM EGTA, 1% Triton X-100, 2.5 mM sodiumpyrophosphate, 1 mM betaglycerophosphate, 1 mM sodiumvanadate, 1 μg/ml of leupeptine, 1 mM phenylmethylsulfonylfluoride. In addition, the cells were digested with ultrasound. The cell lysate was centrifuged in order to obtain the soluble components. The soluble cell lysate was subsequently applied to denaturing sodium dodecyl sulfate polyacrylamide gel electrophoresis in a manner common in the laboratory, and the proteins were separated according to their masses. Thereafter, the proteins were transferred onto nitrocellulose membranes. The protein blots were treated with a solution of 0.1% Tween 20 and 5% dry milk powder for 1 hour in a manner common in the laboratory. Subsequently, the protein blots were incubated with antibodies directed against either the myosin light chain or the phosphorylated myosin light chain.
In order to make either the myosin light chain or the phosphorylated myosin light chain visible, the antibodies were made visible on diagnostic film using chemiluminescence in a manner common in the laboratory. The signal strength was determined with densitometry, and the ratio of myosin light chain to phosphorylated myosin light chain was determined.

[4] = tested on: epithelial sodium channel (ENaC); assay: Expression of the epithelial sodium channel by real-time PCR in H441 cells; type: cell-based, human; conditions: 50 μg/ml of peptide, H441 epithelial cells of the lungs
Protocol: as §1
Epithelial cells of the lungs of type H441 were cultivated in a manner common in the laboratory in a commercial RPMI 1640 medium with the additives 2 mM L-glutamine, 1.5 g/l of sodium carbonate, 4.5 g/l of glucose, 10 mM HEPES buffer pH 7.4, 10% bovine serum.
Verification of the Expression of the Epithelial Sodium Channel
In the cultivated epithelial cells, the expression of the sodium channel (ENaC) was determined by means of “real-time PCR”.

influenza A virus = assay: Course of disease in mice with viral lung infection; type: in vivo, BALB/c mice; conditions: influenza A infected mice
Protocol: The following animal study groups were examined in respect of the effect of peptide SEQ ID No. 1 on a viral lung infection:
Group 1. Negative control (PBS via nasal).
Group 2. Positive control (infection with approx. 2,000 units of influenza A virus via nasal).
Group 3. Test group (infection with approx. 2,000 units of influenza A virus via nasal, as well as intratracheal administration of 10 μg of peptide SEQ ID No. 1).
In each group, 6 BALB/c mice were used.
The following treatment scheme was followed:
Group 1: Administration of PBS via nasal.
Group 2: Infection of the mice with influenza virus A via nasal.
Group 3: Infection of the mice with influenza virus A via nasal and administration of peptide SEQ ID No. 1.
Days of treatment 0, 2, 4, 6, 8:
Group 1: Intratracheal administration of PBS.
Group 2: Intratracheal administration of PBS.
Group 3: Intratracheal administration of peptide SEQ ID No. 1.
Days of treatment 0 to 10:
Daily observation of body temperature, body weight and survival rate of the test animals.

[5] = Lavage-induced large animal ARDS model; type: in vivo, pigs
Protocol: Material & methods: With the consent of the competent animal protection commission, lung damage was induced in two pigs (25 kg) under general anesthesia by surfactant depletion (four-time bronchoalveolar lavage, 30 ml/kg of body weight each). Subsequently, 1 mg/kg of body weight AP301 (peptide SEQ ID No. 1) was endotracheally applied. Animal 1 (1) received a deep tracheal injection of the overall dose, while for animal 2 (2), nebulization of the same dosage over 30 min was performed. Thereafter, there was a five-hour ventilation period. The arterial oxygen partial pressure (paO2) was recorded using an intra-aortic real-time measuring probe (FOXY, Ocean Optics, USA) validated in advance. Spirometry and hemodynamics were permanently registered as well as measurements with the PiCCO technology performed at half-hour intervals.
The ventilation settings were constantly kept in the non-protective range (Pmax 40 mbar, tidal volume≥10 ml/kg of body weight, PEEP≤10 mbar, frequency 25-35/min) in order to avoid therapeutic effects. […] 162.8 mmHg (1) or 224.6 mmHg (2), respectively. With nebulization of AP301, this occurred delayed compared to the deep tracheal application, however, it was more pronounced.

[6] = tested on: hyperpermeability of the lungs of mice; assay: Pneumolysin-induced hyperpermeability and acute lung damage in mice (Evans blue, leukocytes in bronchoalveolar liquid); conditions: 250 ng of pneumolysin and 50 μg of peptide per mouse intratracheal, 5.5 hours

C[C@@H]1NC(=O)CNC(=O)[C@H](CCC(=O)O)NC(=O)[C@@H]2CCCN2C(=O)[C@H]([C@@H](C)O)NC(=O)[C@H](CCC(=O)O)NC(=O)[C@H](CCCNC(=N)N)NC(=O)[C@H](CCC(N)=O)NC(=O)CNC(=O)[C@@H](N)CSSC[C@@H](C(=O)O)NC(=O)[C@H](Cc2ccc(O)cc2)NC(=O)[C@H](Cc2c[nH]c3ccccc23)NC(=O)[C@@H]2CCCN2C(=O)[C@H](CCCCN)NC(=O)[C@H](C)NC(=O)[C@H](CCC(=O)O)NC1=O [peptide SEQ ID No. 1, CGQRETPEGAEAKPWYC]
formation of reactive oxygen molecules by the endothelial cells [1]: no reactive oxygen molecules are formed | hyperpermeability caused by the toxin listeriolysin (electric resistance) [2]: inhibited | hyperpermeability caused by the toxin listeriolysin (electric resistance) [3]: inhibited | increase in the content of phosphorylated myosin light chain by listeriolysin (myosin light chain): inhibits | content of phosphorylated myosin light chain, peptide alone (myosin light chain; 50 μg/ml of peptide without toxin): no influence | expression of the sodium channel ENaC (mRNA) [4]: triplication; also recorded: substantial increase | reduction of body weight (influenza A virus; 10 μg of peptide intratracheal on days 0, 2, 4, 6, 8, within 10 days): approx. 10% | body temperature after 7 days (influenza A virus; 10 μg of peptide intratracheal, after 7 days): 35 °C | mortality after 10 days (influenza A virus; 10 μg of peptide intratracheal, fraction of test animals, 10 days): ⅓ | body temperature subsequently (after day 7) (influenza A virus; 10 μg of peptide intratracheal, recovery after day 7): 37 °C | decrease in body weight (overall conclusion) (influenza A virus; in words): reduces the decrease | lowering of the body temperature (overall conclusion) (influenza A virus; in words): reduces the lowering | survival rate (overall conclusion) (influenza A virus; in words): clearly increased | paO2 increase, max. ([5]; animal 1, 1 mg/kg deep tracheal injection): 162.8 mmHg | paO2 increase, max. ([5]; animal 2, 1 mg/kg nebulization over 30 min): 224.6 mmHg | duration of continuous improvement of oxygenation ([5]; both pigs, 1 mg/kg endotracheally): about 1.5 hours | reduction of the extra-vascular lung water compared to the initial value following surfactant depletion ([5]; pigs, 1 mg/kg endotracheally, PiCCO): 15.8-52.5% | undesired hemodynamic effects during application of the drug ([5]; pigs, 1 mg/kg of body weight endotracheally): no undesired hemodynamic effects | number of leukocytes in the bronchoalveolar liquid [6]: clear reduction; also recorded: clearly less leukocytes | toxin-mediated development of hyperpermeability (Evans blue dye in lung tissue) [6]: inhibition

CGQREAPAGAAAKPWYC [peptide SEQ ID No. 3, reference compound]
formation of reactive oxygen molecules by the endothelial cells [1]: does not result in an inhibition | increase in the content of phosphorylated myosin light chain by listeriolysin (myosin light chain): no influence | expression of the sodium channel ENaC (mRNA) [4]: no substantial increase
